Results as given in PubChem BioAssay AID1259407 (Chemical Carcinogenesis Research Information System (CCRIS), 2018).
Calls of active or inactive are those of the source. The rule behind the calls is not given here.

System: CCRIS mutagenicity, Ames/micronucleus/aberration tests
Test: CCRIS mutagenicity studies

Measured: mutagenic call

Nc1cc(Cl)ccc1Cl
inactive: Test System: AMES SALMONELLA TYPHIMURIUM, Strain/Indicator: TA97, Metabolic Activation: HAMSTER, LIVER, S-9, AROCLOR 1254 (10%), Method: PREINCUBATION inactive; negative | Test System: AMES SALMONELLA TYPHIMURIUM, Strain/Indicator: TA97, Metabolic Activation: HAMSTER, LIVER, S-9, AROCLOR 1254 (30%), Method: PREINCUBATION inactive; negative | Test System: AMES SALMONELLA TYPHIMURIUM, Strain/Indicator: TA97, Metabolic Activation: NONE, Method: PREINCUBATION inactive; negative | Test System: AMES SALMONELLA TYPHIMURIUM, Strain/Indicator: TA97, Metabolic Activation: RAT, LIVER, S-9, AROCLOR 1254 (10%), Method: PREINCUBATION inactive; negative | Test System: AMES SALMONELLA TYPHIMURIUM, Strain/Indicator: TA97, Metabolic Activation: RAT, LIVER, S-9, AROCLOR 1254 (30%), Method: PREINCUBATION inactive; negative | Test System: AMES SALMONELLA TYPHIMURIUM, Strain/Indicator: TA98, Metabolic Activation: HAMSTER, LIVER, S-9, AROCLOR 1254 (10%), Method: PREINCUBATION inactive; negative | Test System: AMES SALMONELLA TYPHIMURIUM, Strain/Indicator: TA98, Metabolic Activation: HAMSTER, LIVER, S-9, AROCLOR 1254 (30%), Method: PREINCUBATION inactive; negative | Test System: AMES SALMONELLA TYPHIMURIUM, Strain/Indicator: TA98, Metabolic Activation: NONE, Method: PREINCUBATION inactive; negative | Test System: AMES SALMONELLA TYPHIMURIUM, Strain/Indicator: TA98, Metabolic Activation: RAT, LIVER, S-9, AROCLOR 1254 (10%), Method: PREINCUBATION inactive; negative | Test System: AMES SALMONELLA TYPHIMURIUM, Strain/Indicator: TA98, Metabolic Activation: RAT, LIVER, S-9, AROCLOR 1254 (30%), Method: PREINCUBATION inactive; negative | Test System: AMES SALMONELLA TYPHIMURIUM, Strain/Indicator: TA100, Metabolic Activation: HAMSTER, LIVER, S-9, AROCLOR 1254 (10%), Method: PREINCUBATION inactive; negative | Test System: AMES SALMONELLA TYPHIMURIUM, Strain/Indicator: TA100, Metabolic Activation: HAMSTER, LIVER, S-9, AROCLOR 1254 (30%), Method: PREINCUBATION inactive; negative | Test System: AMES SALMONELLA TYPHIMURIUM, Strain/Indicator: TA100, Metabolic Activation: NONE, Method: PREINCUBATION inactive; negative | Test System: AMES SALMONELLA TYPHIMURIUM, Strain/Indicator: TA100, Metabolic Activation: RAT, LIVER, S-9, AROCLOR 1254 (10%), Method: PREINCUBATION inactive; negative | Test System: AMES SALMONELLA TYPHIMURIUM, Strain/Indicator: TA100, Metabolic Activation: RAT, LIVER, S-9, AROCLOR 1254 (30%), Method: PREINCUBATION inactive; negative | Test System: AMES SALMONELLA TYPHIMURIUM, Strain/Indicator: TA1535, Metabolic Activation: HAMSTER, LIVER, S-9, AROCLOR 1254 (10%), Method: PREINCUBATION inactive; negative | Test System: AMES SALMONELLA TYPHIMURIUM, Strain/Indicator: TA1535, Metabolic Activation: HAMSTER, LIVER, S-9, AROCLOR 1254 (30%), Method: PREINCUBATION inactive; negative | Test System: AMES SALMONELLA TYPHIMURIUM, Strain/Indicator: TA1535, Metabolic Activation: NONE, Method: PREINCUBATION inactive; negative | Test System: AMES SALMONELLA TYPHIMURIUM, Strain/Indicator: TA1535, Metabolic Activation: RAT, LIVER, S-9, AROCLOR 1254 (10%), Method: PREINCUBATION inactive; negative | Test System: AMES SALMONELLA TYPHIMURIUM, Strain/Indicator: TA1535, Metabolic Activation: RAT, LIVER, S-9, AROCLOR 1254 (30%), Method: PREINCUBATION inactive; negative | Test System: UDS RODENT HEPATOCYTES, Strain/Indicator: THY INCORP (NON-S-PHASE), Metabolic Activation: NONE, Method: AUTORADIOGRAPHY inactive; negative

CC(C)CCC[C@@H](C)[C@H]1CC[C@H]2[C@@H]3C[C@@H]4O[C@@]45C[C@@H](O)CC[C@]5(C)[C@H]3CC[C@]12C
inactive: Test System: AMES SALMONELLA TYPHIMURIUM, Strain/Indicator: TA97, Metabolic Activation: NONE, Method: STANDARD PLATE inactive; negative | Test System: AMES SALMONELLA TYPHIMURIUM, Strain/Indicator: TA98, Metabolic Activation: NONE, Method: STANDARD PLATE inactive; negative | Test System: AMES SALMONELLA TYPHIMURIUM, Strain/Indicator: TA100, Metabolic Activation: NONE, Method: STANDARD PLATE inactive; negative | Test System: AMES SALMONELLA TYPHIMURIUM, Strain/Indicator: TA102, Metabolic Activation: NONE, Method: STANDARD PLATE inactive; negative | Test System: AMES SALMONELLA TYPHIMURIUM, Strain/Indicator: TA1535, Metabolic Activation: NONE, Method: STANDARD PLATE inactive; negative | Test System: CHINESE HAMSTER V-79, Strain/Indicator: V-79/OUABAIN, Metabolic Activation: NONE inactive; negative | Test System: Mouse lymphoma, Strain/Indicator: L5178Y (tk+/tk-), Metabolic Activation: Rat, Liver, S-9, Aroclor 1254, Method: Suspension/plate inactive; inconclusive (previous evaluation negative)
active: Test System: AMES SALMONELLA TYPHIMURIUM, Strain/Indicator: TA1538, Metabolic Activation: RAT, LIVER, S-9, AROCLOR 1254 (10%), Method: STANDARD PLATE active; positive | Test System: CHINESE HAMSTER V-79, Strain/Indicator: V-79/6-THIOGUANINE, Metabolic Activation: NONE active; positive | Test System: CHINESE HAMSTER V-79, Strain/Indicator: V-79/8-AZAGUANINE, Metabolic Activation: NONE active; positive | Test System: MOUSE LYMPHOMA, Strain/Indicator: L5178Y (TK+/TK-), Metabolic Activation: NONE, Method: SUSPENSION/PLATE active; positive. reevaluation of results: equivocal
